# According to PubChem BioAssay AID588715 (Vanderbilt Specialized Chemistry Center, 2011):
# Active and inactive are the calls of the source. The rule behind the calls is not given here.
# Target: Metabotropic glutamate receptor 5 (Rattus norvegicus) (UniProt P31424)
# Assay: mGluR5 positive allosteric modulators, SAR follow-up, cell-based, HEK293A, calcium mobilization, rat (AID 588715)
# Conditions: HEK293A rat mGluR5, Ca2+ mobilization fluorescence, PAM
# Sequence of Metabotropic glutamate receptor 5 (Rattus norvegicus) (P31424 whole entry, looked up): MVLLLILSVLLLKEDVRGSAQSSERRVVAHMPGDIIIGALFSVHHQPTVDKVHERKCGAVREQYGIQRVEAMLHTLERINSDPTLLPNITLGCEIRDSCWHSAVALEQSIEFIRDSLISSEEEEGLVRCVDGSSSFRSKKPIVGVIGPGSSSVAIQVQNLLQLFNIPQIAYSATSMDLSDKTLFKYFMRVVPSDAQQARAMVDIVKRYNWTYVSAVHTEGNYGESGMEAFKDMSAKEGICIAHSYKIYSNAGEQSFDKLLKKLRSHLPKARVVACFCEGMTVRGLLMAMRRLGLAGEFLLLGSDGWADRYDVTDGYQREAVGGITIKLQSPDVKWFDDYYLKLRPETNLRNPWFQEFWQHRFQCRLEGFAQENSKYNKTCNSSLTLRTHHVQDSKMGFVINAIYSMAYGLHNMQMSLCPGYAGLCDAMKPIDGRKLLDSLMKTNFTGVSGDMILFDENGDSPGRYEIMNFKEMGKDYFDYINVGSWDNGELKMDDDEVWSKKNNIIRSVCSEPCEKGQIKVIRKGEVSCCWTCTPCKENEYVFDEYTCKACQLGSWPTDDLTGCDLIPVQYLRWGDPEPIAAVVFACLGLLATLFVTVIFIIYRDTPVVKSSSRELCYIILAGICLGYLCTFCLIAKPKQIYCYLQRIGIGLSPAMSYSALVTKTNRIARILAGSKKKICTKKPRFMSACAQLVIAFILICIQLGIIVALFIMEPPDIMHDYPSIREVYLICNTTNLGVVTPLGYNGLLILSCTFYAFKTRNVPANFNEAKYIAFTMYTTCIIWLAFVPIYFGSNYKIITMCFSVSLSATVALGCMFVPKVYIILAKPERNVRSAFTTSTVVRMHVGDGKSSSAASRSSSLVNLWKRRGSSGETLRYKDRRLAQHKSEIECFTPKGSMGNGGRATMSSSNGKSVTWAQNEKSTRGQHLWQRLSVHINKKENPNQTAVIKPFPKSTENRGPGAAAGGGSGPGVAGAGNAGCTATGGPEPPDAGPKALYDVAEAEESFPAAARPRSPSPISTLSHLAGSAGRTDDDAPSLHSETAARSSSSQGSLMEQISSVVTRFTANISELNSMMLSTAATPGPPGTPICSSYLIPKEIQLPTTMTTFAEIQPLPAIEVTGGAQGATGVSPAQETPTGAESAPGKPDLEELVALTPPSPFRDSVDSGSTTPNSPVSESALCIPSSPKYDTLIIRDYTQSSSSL
row,EC50 [nM],Structure (SMILES)
1,193,O=C(NC1CC(O)C1)c1ccc(C#Cc2cccc(F)c2)cn1 (stereo not drawn)
2,6,CC(C)(CO)NC(=O)c1ccc(C#Cc2cccc(F)c2)cn1
3,71,O=C(NC1CCC1)c1ccc(C#Cc2cccc(F)c2)nc1
4,409,CC(CO)(CO)NC(=O)c1ccc(C#Cc2cccc(F)c2)cn1
5,545,O=C(c1ccc(C#Cc2cccc(F)c2)nc1)N1CCC(O)CC1
6,90,C[C@@H](NC(=O)c1ccc(C#Cc2cccc(F)c2)nc1)C(C)(C)O
7,13,CC(C)(C)NC(=O)c1ccc(C#Cc2cccc(F)c2)cn1
8,213,CC(C)(CO)NC(=O)c1ccc(C#Cc2cccc(F)c2)nc1
9,25,O=C(NC1CCC1)c1ccc(C#Cc2cccc(F)c2)c[n+]1[O-]
10,35,CC(C)(C)NC(=O)c1ccc(C#Cc2cccc(F)c2)nc1
11,12,O=C(NC1CCC1)c1ccc(C#Cc2cccc(F)c2)cn1
12,4820,O=C(NC1COC1)c1ccc(C#Cc2cccc(F)c2)nc1
13,8,C[C@@H](NC(=O)c1ccc(C#Cc2cccc(F)c2)cn1)C(C)(C)O
14,1280,O=C(NC1CCC1)c1ccc(C#CC2CC2)cn1

# Further lines, the compound ahead of its results:
row,Structure (SMILES),EC50 [nM]
1,O=C(NC1CCC1)c1ccc(C#CC2CCCC2)cn1,265
2,C[C@@H](NC(=O)c1ccc(C#CC2CC2)cn1)C(C)(C)O,1580
3,O=C(c1ccc(C#Cc2ccccc2)cc1)N1CCC(O)CC1,523
4,O=C(COCc1ccncc1)N1CCN(c2ccc(F)cc2Cl)CC1,2280

# Same assay, conditions: HEK293A rat mGluR5, Ca2+ mobilization fluorescence, PAM; at 29.8 µM (top of the series)
row,percent of glutamate ECmax,Structure (SMILES)
1,40,CC1(NC(=O)c2ccc(C#Cc3cccc(F)c3)nc2)COC1
2,inactive,O=C(c1ccc(C#Cc2cccc(F)c2)cn1)N1CCCCC1
3,inactive,CC(C)(CO)NC(=O)c1ccc(C#CC2CC2)nc1
4,inactive,O=C(c1ccc(C#Cc2cccc(F)c2)cn1)N1CCC(O)CC1
5,inactive,O=C(O)c1ccc(C#Cc2cccc(F)c2)cn1
6,inactive,CC1(NC(=O)c2ccc(C#CC3CC3)nc2)COC1

# Further lines, the compound ahead of its results:
row,Structure (SMILES),percent of glutamate ECmax
1,C[C@@H](NC(=O)c1ccc(C#CC2CC2)nc1)C(C)(C)O,inactive
2,CC1(NC(=O)c2ccc(C#CC3CC3)cn2)COC1,inactive
3,CC(C)(CO)NC(=O)c1ccc(C#CC2CC2)cc1,inactive
4,O=C(NC1CC(O)C1)c1ccc(C#CC2CC2)cn1 (stereo not drawn),inactive
5,O=C(NC1CCC1)c1ccc(C#CC2CC2)c[n+]1[O-],inactive
6,CC(C)(CO)NC(=O)c1ccc(C#CC2CC2)cn1,inactive
7,CC1(NC(=O)c2ccc(C#CC3CC3)cc2)COC1,inactive
8,C[C@@H](NC(=O)c1ccc(C#CC2CC2)cc1)C(C)(C)O,45
9,O=C(NC1CC(O)C1)c1ccc(C#CC2CC2)cc1 (stereo not drawn),inactive
